In US11000033B2, “Ketone or oxime compound, and herbicide” (NISSAN CHEMICAL CORPORATION, priority 2014, dated 2021):

Legend:
Type in all cases: in vivo
[1] = system: Echinochloa crus-galli var. crus-galli; test: Test Example 3: herbicidal effect by foliage application, Wagner pot (symbol H); conditions: application herbicide amount 320 g/ha
Method in brief: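 In a shallow-flooded alluvial soil system held at 25–30 °C, plants including rice grew for 14 days and were then sprayed over the foliage with emulsion diluted to a fixed herbicide amount. Visual rating followed at 3 weeks.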

soybean [2] = test: Test Example 5: effect on crop by foliage application, plastic box (symbol d); conditions: 320 g/ha, 3 weeks after application
Method in brief: (§1)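 Foliage-application test plants come from spot sowing in sterilized diluvial soil under a soil layer of about 1.5 cm, grown at 25° C. to 30° C. in a greenhouse.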

Abutilon theophrasti = test: Test Example 5: herbicidal effect by foliage application, plastic box (symbol M); conditions: 320 g/ha, 3 weeks after application
Method in brief: (§2)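 Sowing in sterilized diluvial soil, 14 days' greenhouse growth at 25° C. to 30° C., then uniform small-sprayer foliar application of aqueous emulsion dilution; plants scored three weeks afterwards.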

beet [3] = test: Test Example 4: effect on crop by soil treatment (symbol f); conditions: application herbicide amount 320 g/ha
Method in brief: (§3)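 Steps: fill box with sterilized diluvial soil; sow seed spot-like; cover with ~1.5 cm soil; grow in greenhouse (25° C. to 30° C.).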

wheat = test: Test Example 5: effect on crop by foliage application, plastic box (symbol e); conditions: 320 g/ha, 3 weeks after application
Method in brief: as §1

corn = test: Test Example 4: effect on crop by soil treatment (symbol c); conditions: application herbicide amount 320 g/ha
Method in brief: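 The test used sterilized diluvial soil. Seed was set down in spots and overlaid with about 1.5 cm of soil before growth in a greenhouse kept at 25° C. to 30° C.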

Stellaria media = test: Test Example 4: herbicidal effect by soil treatment (symbol P); conditions: application herbicide amount 320 g/ha
Method in brief: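 Seeds were sown in sterilized diluvial soil, covered with about 1.5 cm of soil, and the soil surface was sprayed with a water-diluted emulsion of the compound at a predetermined rate. Plants grew in a greenhouse at 25° C. to 30° C.; effects were scored visually 3 weeks after application.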

beet [4] = test: Test Example 5: effect on crop by foliage application, plastic box (symbol f); conditions: 320 g/ha, 3 weeks after application
Method in brief: as §1

Alopecurus myosuroides = test: Test Example 5: herbicidal effect by foliage application, plastic box (symbol J); conditions: 320 g/ha, 3 weeks after application
Method in brief: as §2

rice plant = test: Test Example 5: effect on crop by foliage application, plastic box (symbol b); conditions: 320 g/ha, 3 weeks after application
Method in brief: as §1

soybean [5] = test: Test Example 4: effect on crop by soil treatment (symbol d); conditions: application herbicide amount 320 g/ha
Method in brief: as §3

transplanted rice plant = test: Test Example 1: effect on crop, application before weed generation in submerged conditions (symbol a); conditions: application herbicide amount 320 g/ha
Method in brief: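 Alluvial soil pots flooded to 4 cm water, sown with Echinochloa oryzacola, Scirpus juncoides and Monochoria vaginalis, then transplanted with 2.5 leaf stage rice seedlings; pre-emergence application. Greenhouse 25° C. to 30° C.; scored 0–5 by herbicidal ratio 3 weeks after application.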

Galium spurium = test: Test Example 5: herbicidal effect by foliage application, plastic box (symbol Q); conditions: 320 g/ha, 3 weeks after application
Method in brief: as §2

[6] = system: Echinochloa oryzacola Vasing.; test: Test Example 1: herbicidal activity, application before weed generation in submerged conditions (symbol A); conditions: application herbicide amount 320 g/ha
Method in brief: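 0–5 visual score, 3 wk post-application. Submerged pots, alluvial soil, water 4 cm; seeds sown mixed, rice at 2.5 leaves transplanted. Emulsion diluted to predetermined dose, applied to water surface at sowing. 25–30 °C greenhouse.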

Row | Structure (SMILES) | herbicidal effect on H (Echinochloa crus-galli var. crus-galli), grade 0-5 [1] | d: soybean, effect on crop grade (soybean [2]) | M: Abutilon theophrasti, herbicidal effect grade (Abutilon theophrasti) | f (beet) effect on crop grade (beet [3]) | e: wheat, effect on crop grade (wheat) | c (corn) effect on crop grade (corn) | P (Stellaria media) herbicidal effect grade (Stellaria media) | f: beet, effect on crop grade (beet [4]) | J: Alopecurus myosuroides, herbicidal effect grade (Alopecurus myosuroides) | b: directly sowed rice plant, effect on crop grade (rice plant) | d (soybean) effect on crop grade (soybean [5]) | Effect grade on crop, a: transplanted rice plant (transplanted rice plant) | Q: Galium spurium, herbicidal effect grade (Galium spurium) | Herbicidal effect grade, A: Echinochloa oryzacola Vasing. [6] | Effect on crop grade, f: beet (beet [3]) | Effect on crop grade, c: corn (corn) | Herbicidal effect grade, P: Stellaria media (Stellaria media) | Effect on crop grade, d: soybean (soybean [5]) | also measured
1 | CC(CC1CC(O)=C(c2c(C)cc(C)cc2C)C1=O)=NOCc1ccccc1 (stereo not shown) [1-020] | 5 (Herbicidal ratio of 90% or more (almost completely withered)) | 0 (Herbicidal ratio of 5% or lower (almost no effect)) | 3 (Herbicidal ratio of 40% or higher and lower than 70%) | 0 (Herbicidal ratio of 5% or lower (almost no effect)) | 5 (Herbicidal ratio of 90% or more (almost completely withered)) | 1 (Herbicidal ratio of 5% or higher and lower than 20%) | 0 (Herbicidal ratio of 5% or lower (almost no effect)) | 3 (Herbicidal ratio of 40% or higher and lower than 70%) | 5 (Herbicidal ratio of 90% or more (almost completely withered)) | 5 (Herbicidal ratio of 90% or more (almost completely withered)) | 0 (Herbicidal ratio of 5% or lower (almost no effect)) | 5 (Herbicidal ratio of 90% or more (almost completely withered)) | 4 (Herbicidal ratio of 70% or higher and lower than 90%) | 5 (Herbicidal ratio of 90% or more (almost completely withered)) |  |  |  |  | 
2 | COC(=O)CON=C(C)CC1CC(O)=C(c2c(C)cc(C)cc2C)C1=O (stereo not shown) [1-023] | 5 (Herbicidal ratio of 90% or more (almost completely withered)) | 0 (Herbicidal ratio of 5% or lower (almost no effect)) | 0 (Herbicidal ratio of 5% or lower (almost no effect)) | 0 (Herbicidal ratio of 5% or lower (almost no effect)) | 0 (Herbicidal ratio of 5% or lower (almost no effect)) | 0 (Herbicidal ratio of 5% or lower (almost no effect)) | 0 (Herbicidal ratio of 5% or lower (almost no effect)) | 0 (Herbicidal ratio of 5% or lower (almost no effect)) | 4 (Herbicidal ratio of 70% or higher and lower than 90%) | 4 (Herbicidal ratio of 70% or higher and lower than 90%) | 0 (Herbicidal ratio of 5% or lower (almost no effect)) | 1 (Herbicidal ratio of 5% or higher and lower than 20%) | 2 (Herbicidal ratio of 20% or higher and lower than 40%) | 4 (Herbicidal ratio of 70% or higher and lower than 90%) |  |  |  |  | 
3 | CC(=O)CC1CC(O)=C(c2c(C)cc(Br)cc2C)C1=O (stereo not shown) [7-002] | 5 (Herbicidal ratio of 90% or more (almost completely withered)) |  |  |  |  |  |  |  |  |  |  | 2 (Herbicidal ratio of 20% or higher and lower than 40%) |  | 0 (Herbicidal ratio of 5% or lower (almost no effect)) | 0 (Herbicidal ratio of 5% or lower (almost no effect)) | 0 (Herbicidal ratio of 5% or lower (almost no effect)) | 0 (Herbicidal ratio of 5% or lower (almost no effect)) | 0 (Herbicidal ratio of 5% or lower (almost no effect)) | d: soybean, effect on crop (criteria of Test Example 1) (soybean [2]): 0 (Herbicidal ratio of 5% or lower (almost no effect)); M: Abutilon theophrasti, herbicidal effect (criteria of Test Example 1) (Abutilon theophrasti): 0 (Herbicidal ratio of 5% or lower (almost no effect)); e: wheat, effect on crop (criteria of Test Example 1) (wheat): 0 (Herbicidal ratio of 5% or lower (almost no effect)); f: beet, effect on crop (criteria of Test Example 1) (beet [4]): 0 (Herbicidal ratio of 5% or lower (almost no effect)); J: Alopecurus myosuroides, herbicidal effect (criteria of Test Example 1) (Alopecurus myosuroides): 4 (Herbicidal ratio of 70% or higher and lower than 90%); b: directly sowed rice plant, effect on crop (criteria of Test Example 1) (rice plant): 5 (Herbicidal ratio of 90% or more (almost completely withered)); Q: Galium spurium, herbicidal effect (criteria of Test Example 1) (Galium spurium): 0 (Herbicidal ratio of 5% or lower (almost no effect))
4 | C=CCON=C(C)CC1CC(O)=C(c2c(C)cc(C)cc2C)C1=O (stereo not shown) [1-018] | 5 (Herbicidal ratio of 90% or more (almost completely withered)) | 3 (Herbicidal ratio of 40% or higher and lower than 70%) | 3 (Herbicidal ratio of 40% or higher and lower than 70%) | 0 (Herbicidal ratio of 5% or lower (almost no effect)) | 5 (Herbicidal ratio of 90% or more (almost completely withered)) | 4 (Herbicidal ratio of 70% or higher and lower than 90%) |  | 4 (Herbicidal ratio of 70% or higher and lower than 90%) | 5 (Herbicidal ratio of 90% or more (almost completely withered)) | 5 (Herbicidal ratio of 90% or more (almost completely withered)) | 0 (Herbicidal ratio of 5% or lower (almost no effect)) | 5 (Herbicidal ratio of 90% or more (almost completely withered)) | 4 (Herbicidal ratio of 70% or higher and lower than 90%) | 5 (Herbicidal ratio of 90% or more (almost completely withered)) |  |  |  |  | 
5 | CON=C(C)C(=NOC)C1CC(O)=C(c2c(C)cc(C)cc2C)C1=O (stereo not shown) [8-003] |  | 0 (Herbicidal ratio of 5% or lower (almost no effect)) | 0 (Herbicidal ratio of 5% or lower (almost no effect)) |  | 0 (Herbicidal ratio of 5% or lower (almost no effect)) |  |  | 0 (Herbicidal ratio of 5% or lower (almost no effect)) | 0 (Herbicidal ratio of 5% or lower (almost no effect)) | 0 (Herbicidal ratio of 5% or lower (almost no effect)) |  | 0 (Herbicidal ratio of 5% or lower (almost no effect)) | 0 (Herbicidal ratio of 5% or lower (almost no effect)) | 0 (Herbicidal ratio of 5% or lower (almost no effect)) | 0 (Herbicidal ratio of 5% or lower (almost no effect)) | 0 (Herbicidal ratio of 5% or lower (almost no effect)) | 0 (Herbicidal ratio of 5% or lower (almost no effect)) | 0 (Herbicidal ratio of 5% or lower (almost no effect)) | H (Echinochloa crus-galli var. crus-galli) herbicidal effect grade ([1]; Table 24): 0 (Herbicidal ratio of 5% or lower (almost no effect))
6 | CC(CC1CC(O)=C(c2c(C)cc(C)cc2C)C1=O)=NOCc1ccccn1 (stereo not shown) [1-022] | 5 (Herbicidal ratio of 90% or more (almost completely withered)) | 3 (Herbicidal ratio of 40% or higher and lower than 70%) | 1 (Herbicidal ratio of 5% or higher and lower than 20%) | 3 (Herbicidal ratio of 40% or higher and lower than 70%) | 5 (Herbicidal ratio of 90% or more (almost completely withered)) | 0 (Herbicidal ratio of 5% or lower (almost no effect)) |  | 0 (Herbicidal ratio of 5% or lower (almost no effect)) | 5 (Herbicidal ratio of 90% or more (almost completely withered)) | 5 (Herbicidal ratio of 90% or more (almost completely withered)) | 0 (Herbicidal ratio of 5% or lower (almost no effect)) | 5 (Herbicidal ratio of 90% or more (almost completely withered)) | 4 (Herbicidal ratio of 70% or higher and lower than 90%) | 5 (Herbicidal ratio of 90% or more (almost completely withered)) |  |  |  |  | 
